Measurements as given in patent publication US20210115040A1, “OGA INHIBITOR COMPOUNDS” (Janssen Pharmaceutica NV, priority 2018, published 2021).

Molecular target: T1, OGA (Homo sapiens, UniProt O60502)
T1 construct: HEK293 cells inducible for P301L mutant human Tau (isoform 2N4R) were established at Janssen; endogenous in cells; host or cells: HEK293 cells inducible for P301L mutant human Tau (2N4R)
T1 sequence (O60502 1-916): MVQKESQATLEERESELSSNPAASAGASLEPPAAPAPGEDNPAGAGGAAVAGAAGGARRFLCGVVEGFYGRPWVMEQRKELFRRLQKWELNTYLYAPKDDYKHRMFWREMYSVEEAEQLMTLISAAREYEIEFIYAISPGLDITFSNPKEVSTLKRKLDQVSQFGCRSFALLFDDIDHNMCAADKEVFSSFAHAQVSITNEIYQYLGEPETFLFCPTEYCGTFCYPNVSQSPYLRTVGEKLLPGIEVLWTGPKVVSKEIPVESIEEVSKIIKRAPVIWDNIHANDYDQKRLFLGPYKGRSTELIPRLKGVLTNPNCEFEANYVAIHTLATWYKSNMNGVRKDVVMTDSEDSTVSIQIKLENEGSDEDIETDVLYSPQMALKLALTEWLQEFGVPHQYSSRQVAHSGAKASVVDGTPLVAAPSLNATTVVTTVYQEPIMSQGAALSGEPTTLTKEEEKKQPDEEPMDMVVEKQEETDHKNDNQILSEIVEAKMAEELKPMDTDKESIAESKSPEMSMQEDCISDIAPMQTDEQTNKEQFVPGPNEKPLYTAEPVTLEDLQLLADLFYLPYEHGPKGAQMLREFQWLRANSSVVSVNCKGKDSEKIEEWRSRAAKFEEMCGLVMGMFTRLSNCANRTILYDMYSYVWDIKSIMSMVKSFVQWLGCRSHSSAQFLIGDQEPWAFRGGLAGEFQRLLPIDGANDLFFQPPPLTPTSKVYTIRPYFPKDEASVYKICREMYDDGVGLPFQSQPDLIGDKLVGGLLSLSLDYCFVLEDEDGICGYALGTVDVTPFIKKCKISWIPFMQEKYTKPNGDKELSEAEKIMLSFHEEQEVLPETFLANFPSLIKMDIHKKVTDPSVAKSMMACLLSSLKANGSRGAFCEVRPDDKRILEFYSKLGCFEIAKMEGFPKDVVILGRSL
Assay: OGA cellular assay (ICC detection of O-GlcNAcylated proteins in HEK293 cells inducible for P301L mutant human Tau)
Type: cell-based
Summary of the method: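 HEK293 cells inducible for P301L Tau (2N4R), seeded in low-glucose medium, treated with compound for 6 h at 0.2% DMSO. O-GlcNAc immunostained with CTD110.6 after PFA fixation; 488 nm intensity imaged, Hoechst nuclei counted for toxicity. IC50 by non-linear regression, 200 uM Thiamet G as maximum.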

Cc1cc(C2CCCN(C(C)c3ccc4sc(C)nc4n3)C2)cc(C)n1 (racemic) [Compound 39]
Emax (HEK293, HEK293 cells inducible for P301L mutant human Tau, maximum = Thiamet G 200 uM): 79% | EC50 (HEK293 cells inducible for P301L mutant human Tau, 6 hours incubation, read-out: Cellular hOGA, pEC50 (converted)): 63.1 nM
